Laboratory results as given in publication PMC11783063, “Design, synthesis, and apoptotic antiproliferative action of new benzimidazole/1,2,3-triazole hybrids as EGFR inhibitors” (Frontiers in Chemistry, 2025).
Where two headings read alike, the source gives them in different places.

What was measured:
[1] = test system: MCF-7 (breast cancer cell line); assay: Antiproliferative assay, MCF-7; format: cell-based, human; conditions: read-out: Antiproliferative activity IC50 ± SEM, MCF-7
Description: (§1) Refer to Supplementary Appendix A for more information.
(§2) DMSO (0.1%) was used as control.

[2] = test system: Panc-1 (pancreatic cancer cell line); assay: Antiproliferative assay, Panc-1; format: cell-based, human; conditions: read-out: Antiproliferative activity IC50 ± SEM, Panc-1
Description: as §1, §2

[3] = test system: four human cancer cell lines (HT-29, A-549, MCF-7, Panc-1); assay: Antiproliferative assay, mean over four cancer cell lines (GI50); conditions: for IC50: read-out: Average IC50 (GI50)
Description: To calculate the total nuclear DNA, a fluorescent dye (propidium iodide, PI) is used which can attach to the DNA, thus offering a quick and precise technique. PI cannot pass through the cell membrane and its signal intensity can be considered as directly proportional to quantity of cellular DNA. Cells whose cell membranes are damaged or have changed permeability are counted as dead ones. […] The medium was removed; the compounds were added to the plates at 10 µM concentrations (in 0.1% DMSO) in triplicates, followed by incubation for 48 h. DMSO (0.1%) was used as control. After incubation, medium was removed followed by the addition of PI (25 µl, 50µg/mL in water/medium) to each well of the plates. At -80 °C, the plates were allowed to freeze for 24 h, followed by thawing at 25 °C. A fluorometer (Polar-Star BMG Tech) was used to record the readings at excitation and emission wavelengths of 530 and 620 nm for each well. The percentage cytotoxicity of compounds was calculated using the following formula:

[4] = test system: A-549 (lung cancer cell line); assay: Antiproliferative assay, A-549; format: cell-based, human; conditions: read-out: Antiproliferative activity IC50 ± SEM, A-549
Description: as §1, §2

[5] = test system: HT-29 (colon cancer cell line); assay: Antiproliferative assay, HT-29; format: cell-based, human; conditions: read-out: Antiproliferative activity IC50 ± SEM, HT-29
Description: as §1, §2

[6] = test system: MCF-10A normal human mammary gland epithelial cell line; conditions: 50 µM
Description: (§3) The medium in which cells were propagated contained Dulbecco's modified Eagle's medium (DMEM)/ Ham's F-12 medium (1:1) supplemented with epidermal growth factor (20 ng/mL), hydrocortisone (500 ng/mL), insulin (10 μg/mL), 2 mM glutamine and 10% foetal calf serum. After every 2-3 days, the cells were passed using trypsin ethylenediamine tetra acetic acid (EDTA). The cells were seeded at a density of 10^4 cells mL^-1 in flat-bottomed culture plates containing 96 wells each. After 24 h, medium was removed from the plates and the compounds in (in 0.1% DMSO) were added (in 200 μL medium to yield a final concentration of 0.1% v/v) to the wells of plates. A single compound was designated with four wells followed by incubation of plates for 96h at 37°C. After incubation, medium was removed completely from the plates followed by addition of MTT (0.4 mg/mL in medium) to each well and subsequent incubation of plates for 3h. MTT (along with the medium) was removed and DMSO (150μL) was added to each well of the culture plates, followed by vortexing and subsequent measurement of absorbance (at 540 nm) using microplate reader.

[7] = Cell viability assay (MTT) on MCF-10A normal cells; conditions: human, MCF-10A normal mammary gland epithelial cells
Description: as §3

EGFR = EGFR (Homo sapiens, UniProt P00533); assay: EGFR-TK inhibitory assay
Chain of EGFR (P00533 669-1210): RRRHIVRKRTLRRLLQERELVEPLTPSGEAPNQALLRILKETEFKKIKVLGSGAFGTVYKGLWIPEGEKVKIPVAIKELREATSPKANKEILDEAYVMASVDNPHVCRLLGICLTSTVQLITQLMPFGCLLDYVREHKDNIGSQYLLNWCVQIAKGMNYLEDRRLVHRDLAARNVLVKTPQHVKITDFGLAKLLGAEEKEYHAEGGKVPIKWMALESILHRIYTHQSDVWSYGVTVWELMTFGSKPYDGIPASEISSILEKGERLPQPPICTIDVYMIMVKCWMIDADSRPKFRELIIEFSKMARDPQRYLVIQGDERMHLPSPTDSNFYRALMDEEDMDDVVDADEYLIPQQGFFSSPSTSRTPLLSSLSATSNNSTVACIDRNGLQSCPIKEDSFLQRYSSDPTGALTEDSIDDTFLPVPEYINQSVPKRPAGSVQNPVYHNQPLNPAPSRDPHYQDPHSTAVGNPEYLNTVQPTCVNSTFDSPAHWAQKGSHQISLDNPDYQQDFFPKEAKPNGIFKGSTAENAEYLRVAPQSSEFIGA
Description: To record autophosphorylation level, EGFR kinase assay was carried out on the basis of DELFIA/Time-Resolved Fluorometry. […] Each compound (10 µL) was incubated with recombinant enzyme (10 µL, 5 ng for EGFR, 1:80 dilution in 100 mM HEPES) for 10 min at 25 °C, subsequent to the addition of 5X buffer (10 µL, containing 2 mM MnCl2, 100 µM Na3VO4, 20 mM HEPES and 1 mM DTT) and ATP-MgCl2 (20 µL, containing 0.1 mM ATP and 50 mM MgCl2) and incubation for 1h. The negative and positive controls were included in each plate by the incubation of enzyme either with or without ATP-MgCl2. The liquid was removed after incubation and the plates were washed thrice using wash buffer. Europium-tagged antiphosphotyrosine antibody (75 µL, 400 ng) was added to each well followed by incubation of 1h and then washing of the plates using buffer. […] The autophosphorylation percentage inhibition by compounds was calculated using the following equation:

[8] = mean IC50 of A-549, MCF-7, Panc-1, HT-29

Row | IC50 ([1]; MCF-7) | IC50 ([2]; Panc-1) | IC50 [3, 8] | IC50 ([4]; A-549) | IC50 [5] | IC50 ([1]; Homo sapiens, MCF7) | IC50 ([2]; Homo sapiens, PANC-1) | IC50 ([3]; Homo sapiens) | IC50 ([4]; Homo sapiens, A549) | IC50 ([5]; Homo sapiens) | IC50 (EGFR) | Potency relative to 10e (GI50), fold less potent ([3]; GI50 vs 10e) | Compound | Cell viability % [6] | viability at 4 days, 50 µM [7]
1 | 72 ± 7 nM | 76 ± 7 nM | 75 nM | 76 ± 7 nM | 76 ± 7 nM |  |  |  |  |  |  |  | 2-(Benzylthio)-1-((1-(3-methoxyphenyl)-1H-1,2,3-triazol-5-yl)methyl)-1H-benzimidazole [10h] | 89% | 
2 | 52 ± 5 nM | 54 ± 5 nM | 54 nM | 55 ± 5 nM | 54 ± 5 nM |  |  |  |  |  |  |  | 2-(Benzylthio)-1-((1-(4-bromophenyl)-1H-1,2,3-triazol-5-yl)methyl)-1H-benzimidazole [10c] | 92% | 
3 | 44 ± 3 nM | 48 ± 4 nM |  | 48 ± 4 nM | 48 ± 4 nM |  |  |  |  |  |  |  | 2-(Benzylthio)-1-((1-(4-chlorophenyl)-1H-1,2,3-triazol-5-yl)methyl)-1H-benzimidazole [10b] | 86% | 
4 | 63 ± 6 nM | 65 ± 6 nM | 65 nM | 66 ± 6 nM | 65 ± 6 nM |  |  |  |  |  |  |  | 2-(Benzylthio)-1-((1-(p-tolyl)-1H-1,2,3-triazol-5-yl)methyl)-1H-benzimidazole [10f] | 89% | 
5 | 56 ± 5 nM | 60 ± 5 nM | 59 nM | 59 ± 5 nM | 60 ± 5 nM |  |  |  |  |  |  |  | 2-(Benzylthio)-1-((1-phenyl-1H-1,2,3-triazol-5-yl)methyl)-1H-benzimidazole [10a] | 87% | 
6 |  |  |  |  |  | 85 ± 7 nM | 89 ± 8 nM | 88 nM | 89 ± 8 nM | 88 ± 8 nM |  |  | c1ccc(-n2cc(CSc3nc4ccccc4[nH]3)nn2)cc1 [6a, 2-(((1-Phenyl-1H-1,2,3-triazol-4-yl)methyl)thio)-1H-benzimidazole] |  | 84%
7 |  |  |  |  |  | 45 ± 4 nM | 48 ± 4 nM | 47 nM | 47 ± 4 nM | 48 ± 4 nM |  |  | Clc1ccc(-n2cc(CSc3nc4ccccc4[nH]3)nn2)cc1 [6b, 2-(((1-(4-Chlorophenyl)-1H-1,2,3-triazol-4-yl)methyl)thio)-1H-benzimidazole] |  | 87%
8 |  |  |  |  |  | 90 ± 8 nM | 96 ± 9 nM | 94 nM | 96 ± 9 nM | 94 ± 9 nM |  |  | Brc1ccc(-n2cc(CSc3nc4ccccc4[nH]3)nn2)cc1 [6c, 2-(((1-(4-Bromophenyl)-1H-1,2,3-triazol-4-yl)methyl)thio)-1H-benzimidazole] |  | 91%
9 |  |  |  |  |  | 83 ± 7 nM | 86 ± 8 nM | 85 nM | 85 ± 7 nM | 86 ± 8 nM |  |  | O=[N+]([O-])c1ccc(-n2cc(CSc3nc4ccccc4[nH]3)nn2)cc1 [6d, 2-(((1-(4-Nitrophenyl)-1H-1,2,3-triazol-4-yl)methyl)thio)-1H-benzimidazole] |  | 93%
10 |  |  |  |  |  | 36 ± 3 nM | 38 ± 3 nM | 38 nM | 40 ± 3 nM | 38 ± 3 nM | 89 ± 6 nM |  | O=[N+]([O-])c1cccc(-n2cc(CSc3nc4ccccc4[nH]3)nn2)c1 [6e, 2-(((1-(3-Nitrophenyl)-1H-1,2,3-triazol-4-yl)methyl)thio)-1H-benzimidazole] |  | 86%
11 |  |  |  |  |  | 78 ± 7 nM | 80 ± 7 nM | 80 nM | 81 ± 7 nM | 82 ± 7 nM |  |  | Cc1ccc(-n2cc(CSc3nc4ccccc4[nH]3)nn2)cc1 [6f, 2-(((1-(p-Tolyl)-1H-1,2,3-triazol-4-yl)methyl)thio)-1H-benzimidazole] |  | 90%
12 |  |  |  |  |  | 69 ± 6 nM | 72 ± 7 nM | 72 nM | 72 ± 7 nM | 74 ± 7 nM |  |  | COc1ccc(-n2cc(CSc3nc4ccccc4[nH]3)nn2)cc1 [6g, 2-(((1-(4-Methoxyphenyl)-1H-1,2,3-triazol-4-yl)methyl)thio)-1H-benzimidazole] |  | 89%
13 |  |  |  |  |  | 66 ± 6 nM | 69 ± 6 nM | 68 nM | 69 ± 6 nM | 68 ± 6 nM |  |  | COc1cccc(-n2cc(CSc3nc4ccccc4[nH]3)nn2)c1 [6h, 2-(((1-(3-Methoxyphenyl)-1H-1,2,3-triazol-4-yl)methyl)thio)-1H-benzimidazole] |  | 91%
14 |  |  |  |  |  | 34 ± 3 nM | 36 ± 3 nM | 36 nM | 37 ± 3 nM | 38 ± 3 nM | 86 ± 6 nM | 1.5 fold | O=[N+]([O-])c1ccc(-n2cc(Cn3c(SCc4ccccc4)nc4ccccc43)nn2)cc1 [10d] |  | 89%
15 |  |  |  |  |  | 32 ± 3 nM | 34 ± 3 nM | 34 nM | 34 ± 3 nM | 35 ± 3 nM | 82 ± 5 nM |  | COc1ccc(-n2cc(Cn3c(SCc4ccccc4)nc4ccccc43)nn2)cc1 [10g] |  | 90%
16 |  |  |  |  |  | 42 ± 4 nM | 44 ± 4 nM | 43 nM | 44 ± 4 nM | 45 ± 4 nM |  |  | NS(=O)(=O)c1ccc(-n2cc(Cn3c(SCc4ccccc4)nc4ccccc43)nn2)cc1 [10i] |  | 91%

Row | Compound | IC50 ([1]; MCF-7) | IC50 ([2]; Panc-1) | IC50 [3, 8] | IC50 ([4]; A-549) | IC50 [5] | IC50 ([1]; Homo sapiens, MCF7) | IC50 ([2]; Homo sapiens, PANC-1) | IC50 ([3]; Homo sapiens) | IC50 ([4]; Homo sapiens, A549) | IC50 ([5]; Homo sapiens) | IC50 (EGFR) | Potency relative to 10e (GI50), fold less potent ([3]; GI50 vs 10e) | Cell viability % [6] | viability at 4 days, 50 µM [7]
17 | C#Cc1cccc(Nc2ncnc3cc(OCCOC)c(OCCOC)cc23)c1 [Erlotinib, reference compound] |  |  |  |  |  |  |  | 33 nM |  |  |  |  |  | 
